≈ marks a conversion by molar mass, not a printed value. Where “and” joins values, the source holds several entries; their conditions need not be identical. Equal values may be shown once.
Key:
[1] = Hydrolysis of the prodrugs in 80% human plasma; format: in vitro ADME; conditions: for half-life: read-out: t1/2 in plasma
Experimental: At 37±0.5° C., the hydrolysis rate of the prodrugs was measured in 80% human plasma. An appropriate aliquot (20-100 μL) of 1 mg/ml prodrug solution in methanol was transferred to 5.0 ml of preheated plasma. At appropriate time intervals, 300 μl sample aliquots were withdrawn and transferred to 600 μl acetonitrile and mixed thoroughly. After centrifugation at 13500 rpm for 5 min, the supernatant was analyzed by HPLC for parent drug and remaining prodrug.

[2] = Solubility of the prodrugs in PBS (67 mM phosphate buffer pH 7.4); conditions: for solubility thermodynamic: 67 mM phosphate buffer pH 7.4 (PBS), 37 °C; for Sprodrug ± SD: PBS (67 mM phosphate buffer pH 7.4), 37° C.
Experimental: The determination of the solubility of a prodrug at different pH values of interest according to the present invention is carried by adding excess solid prodrug to a container containing a buffer solution with well-defined pH. The mixture is rotated at constant temperature until an equilibrium between solid prodrug and prodrug in solution has established (that is until the prodrug concentration in the supernatant remains constant). At each measurement the pH of the supernatant is controlled and, if needed, adjusted to the desired pH.
Suspensions of the prodrugs in 67 mM phosphate buffer pH 7.4 (PBS) were prepared by adding 10 mL PBS to approximately 5 mg prodrug. The suspensions were kept unstirred at 37° C. in an incubator hood. At appropriate time intervals over 23 days, about 500 μL samples were taken and after filtration (disposable syringe filters), the solutions were analyzed immediately by HPLC for parent drug and remaining prodrug. Quantitation of parent drug and prodrug was done from peak area measurements in relations to those of standards analysed by HPLC at the same conditions. […] For the diclofenac and ibuprofen prodrugs, the following method was used: Merck Hitachi L 6000 pump connected to Merck Hitachi 4250 UV detector. Reversed phase chromatography was performed using a C18 Gemini® RP column (150×4.6 mm, 5 μm particles) (Phenomenex, Torrance, Calif., USA) equipped with a SecurityGuard precolumn (Phenomenex, Torrance, Calif., USA). The flow rate was set at 1 mL/min and the column effluent was monitored at 230 nm. The mobile phase consisted of 35% (v/v) acetonitrile and 65% (v/v) of 0.1% (v/v) phosphoric acid pH 3.2. The retention times varied in the range of 3 to 30 min.
From the observed relatively stable concentration of dissolved prodrugs measured in the suspensions after 8-9 day up to 23 days, the solubilities of the prodrugs (Sprodrug) were determined.

[3] = Stability (cleavage to parent drug) of prodrug suspensions in PBS pH 7.4; format: physicochemical; conditions: for half-life at 0.5 mg/mL: 67 mM phosphate buffer (PBS), PBS pH 7.4, 37° C., read-out: t1/2 in PBS (converted); for apparent pseudo-zero-order rate constant k0: appearance of parent drug in PBS pH 7.4 suspension, 37° C.; for estimated pseudo first-order rate constant khyd: cleavage of prodrug in PBS pH 7.4, 37° C., calculated from k0 and Sprodrug
Experimental: Suspensions of the prodrugs in 67 mM phosphate buffer pH 7.4 (PBS) were prepared by adding 10 mL PBS to approximately 5 mg prodrug. The suspensions were kept unstirred at 37° C. in an incubator hood. At appropriate time intervals over 23 days, about 500 μL samples were taken and after filtration (disposable syringe filters), the solutions were analyzed immediately by HPLC for parent drug and remaining prodrug. Quantitation of parent drug and prodrug was done from peak area measurements in relations to those of standards analysed by HPLC at the same conditions.
From the observed relatively stable concentration of dissolved prodrugs measured in the suspensions after 8-9 day up to 23 days, the solubilities of the prodrugs (Sprodrug) were determined. In this time interval, the rate of appearance of parent drug was determined and an apparent pseudo-zero-order rate constant (k0) was obtained. By assuming that the dissolution rates were much faster than the conversion of the prodrugs to the parent drug, pseudo first-order rate constants (khyd) for cleavage of the prodrugs were calculated according to:

[4] = Solubility at acidic pH, with and without DMA cosolvent; format: physicochemical
Experimental: A suspension of DPX-2-0007 (as hydrochloride salt) was formed by adding 30 mg to 4 mL demineralized water. After rotation of the suspension at 37° C. for 3 days, 1.0 mL sample was taken and after filtration (disposable syringe filters), the solution was diluted in methanol:water 1:1 and analyzed immediately by HPLC for prodrug. […] The pH in the solution was measured to 3.40. The following HPLC method was used: Merck Hitachi L 6200 pump connected to Merck Hitachi 4250 UV detector. Reversed phase chromatography was performed using a RP 18 Symmetry Shields® column (150×4.6 mm, 5 μm particles) equipped with a SecurityGuard precolumn (Phenomenex, Torrance, Calif., USA). […] The retention time of naproxen and DPX-2-0007 were 19 and 5.8 min, respectively.
A suspension of DPX-2-0006 was formed by adding 10 mg to 3 mL demineralized water, 0.05 mL 0.100 M HCl was added to obtain a pH of 3. After rotation of the suspension at 37° C. for 1 days, 0.5 mL sample was taken and after filtration (disposable syringe filters), the solution was diluted in methanol:water 1:1 and analyzed immediately by HPLC for prodrug. […] The HPLC method described in Example 29 was applied and the retention time of DPX-2-0006 was 14 min, respectively. N,N-dimethylacetamide (DMA) was added stepwise to the acidic suspension of DPX-2-0006 and the amount of DPX-2-000 dissolved in the presence of various volumes of DMA was determined after 1-3 days rotation at 37° C. as described above.

[5] = Precipitation on addition of acidic prodrug solution to phosphate buffer pH 7.4; format: physicochemical; conditions: 1.0 mL aqueous solution pH 3.4 added to 1.0 mL 67 mM phosphate buffer pH 7.4
Experimental: At appropriate time intervals, samples were withdrawn and centrifuged for 5 min at 13,000 rpm and the supernatant was analysed by HPLC for DPX-4-0001 and formed ketorolac. The HPLC method described in Example 26 was applied. […] A slight increase in the ketorolac concentration is the result of pH dependent hydrolysis of the prodrug bond (FIG. 3).
The pH in the suspension was measured to 7.0.

pKa value = format: physicochemical
[6] = hydrolysis in 80% human plasma at 37° C.
[7] = pH 7.4, aqueous buffer, thermodynamic from solid

Row | SMILES | half-life [1, 6] [h] | solubility thermodynamic [2, 7] | Sprodrug ± SD [2] | half-life at 0.5 mg/mL [3] [days] | apparent pseudo-zero-order rate constant k0 [3] [M/day] | estimated pseudo first-order rate constant khyd [3] [day⁻¹] | other results
1 | COc1ccc2cc(C(C)C(=O)OCCn3ccnc3)ccc2c1 (stereo not drawn) | 1.07 | 146 ± 5 µg/mL | 0.45 ± 0.02 mM | – | – | – | –
2 | O=C(Cc1ccccc1Nc1c(Cl)cccc1Cl)OCCn1ccnc1 [DPX-1-0005, 2-(1H-imidazol-1-yl)ethyl 2-(2-(2,6-dichlorophenylamino)phenyl)acetate] | – | 1 µg/mL | 0.003 mM | – | – | – | –
3 | O=C(Cc1ccccc1Nc1c(Cl)cccc1Cl)OCCn1cnc2ccccc21 [DPX-1-0006, 2-(1H-benzo[d]imidazol-1-yl)ethyl 2-(2-((2,6-dichlorophenyl)amino)phenyl)acetate] | 0.05 | 7 ± 2 µg/mL | 0.015 ± 0.004 mM | 4 | 2.4e-06 | 0.17 | –
4 | O=C(Cc1ccccc1Nc1c(Cl)cccc1Cl)OCCn1ccnc1-c1ccccc1 [DPX-1-0007, 2-(2-phenyl-1H-imidazol-1-yl)ethyl 2-(2-((2,6-dichlorophenyl)amino)phenyl)acetate] | 0.817 | 43 ± 2 µg/mL | 0.086 ± 0.003 mM | 242 | 2.5e-07 | 0.0029 | –
5 | CCCc1nccn1CCOC(=O)Cc1ccccc1Nc1c(Cl)cccc1Cl [DPX-1-0008, 2-(2-propyl-1H-imidazol-1-yl)ethyl 2-(2-(2,6-dichlorophenylamino)phenyl)acetate] | – | 0.3 µg/mL | 0.0007 mM | – | – | – | –
6 | O=C(Cc1ccccc1Nc1c(Cl)cccc1Cl)OCCCCCCn1ccnc1 [DPX-1-0009, 6-(1H-imidazol-1-yl)hexyl 2-(2-(2,6-dichlorophenylamino)phenyl)acetate] | – | < 0.3 µg/mL | <0.0007 mM | – | – | – | –
7 | CCCc1nccn1CCCCCCOC(=O)Cc1ccccc1Nc1c(Cl)cccc1Cl [DPX-1-0010, 6-(2-propyl-1H-imidazol-1-yl)hexyl 2-(2-(2,6-dichiorophenylamino)phenyl)acetate] | – | < 0.4 µg/mL | <0.0008 mM | – | – | – | –
8 | Cn1ccnc1CCOC(=O)Cc1ccccc1Nc1c(Cl)cccc1Cl [DPX-1-0011, 2-(1-methyl-1H-imidazol-2-yl)ethyl 2-(2((2,6-dichlorophenyl)amino)phenyl)acetate] | – | 0.1 µg/mL | 0.0002 mM | – | – | – | –
9 | O=C(Cc1ccccc1Nc1c(Cl)cccc1Cl)OCCOCCn1ccnc1-c1ccccc1 [DPX-1-0012, 2-(2-(2-phenyl-1H-imidazol-1-yl)ethoxy)ethyl 2-(2-((2,6-dichlorophenyl)-amino)phenyl)acetate] | – | < 0.3 µg/mL | <0.0006 mM | – | – | – | –
10 | CN(C)c1ccc(CCO)cc1 [IPU 1, 4-(hydroxyethyl)-N,N-dimethylaniline] | – | – | – | – | – | – | pKa (pKa value): ~5.2

Second part, led by results:

Row | half-life [1, 6] [h] | solubility thermodynamic [2, 7] | Sprodrug ± SD [2] | half-life at 0.5 mg/mL [3] [days] | apparent pseudo-zero-order rate constant k0 [3] [M/day] | estimated pseudo first-order rate constant khyd [3] [day⁻¹] | SMILES | other results
11 | – | 0.01 µg/mL | 2e-05 mM | – | – | – | CN(C)c1ccc(CCOC(=O)Cc2ccccc2Nc2c(Cl)cccc2Cl)cc1 [DPX-1-0001, 4-(dimethylamino)phenethyl 2-(2-(2,6-dichlorophenylamino)phenyl)acetate] | –
12 | – | < 0.1 µg/mL | <0.0002 mM | – | – | – | CN(CCOC(=O)Cc1ccccc1Nc1c(Cl)cccc1Cl)c1ccccc1 [DPX-1-0002, 2-(methyl(phenyl)amino)ethyl 2-(2-(2,6-dichlorophenylamino)phenyl)acetate] | –
13 | 0.417 | 3 ± 1 µg/mL | 0.007 ± 0.001 mM | 5 | 1.1e-06 | 0.15 | O=C(Cc1ccccc1Nc1c(Cl)cccc1Cl)OCCc1ccccn1 [DPX-1-0004, 2-(pyridin-2-yl)ethyl 2-(2-((2,6-dichlorophenyl)amino)phenyl)acetate] | –
14 | – | < 0.3 µg/mL | <0.0008 mM | – | – | – | COc1ccc2cc(C(C)C(=O)OCCc3ccc(N(C)C)cc3)ccc2c1 (stereo not drawn) [DPX-2-0001, 4-(dimethylamino)phenethyl 2-(6-methoxynaphthalen-2-yl)propanoate] | –
15 | – | < 0.2 µg/mL | <0.0006 mM | – | – | – | COc1ccc2cc(C(C)C(=O)OCCN(C)c3ccccc3)ccc2c1 (stereo not drawn) [DPX-2-0002, 2-(methyl(phenyl)amino)ethyl 2-(6-methoxynaphthalen-2-yl)propanoate] | –
16 | – | < 1 µg/mL | <0.003 mM | – | – | – | COc1ccc2cc(C(C)C(=O)OCCCN(C)c3ccccc3)ccc2c1 (stereo not drawn) [DPX-2-0003, 3-(methyl(phenyl)amino)propyl 2-(6-methoxynaphthalen-2-yl)propanoate] | –
17 | 4.78 | 19 ± 1 µg/mL | 0.052 ± 0.002 mM | 21 | 1.7e-06 | 0.033 | COc1ccc2cc(C(C)C(=O)OCCc3ccccn3)ccc2c1 (stereo not drawn) [DPX-2-0004, 2-(pyridin-2-yl)ethyl 2-(6-methoxynaphthalen-2-yl)propanoate] | –
18 | 8.52 | – | 5 ± 1 μg/mL and 0.015 ± 0.002 mM | 11 | 1e-06 | 0.066 | COc1ccc2cc(C(C)C(=O)OCCn3cnc4ccccc43)ccc2c1 (stereo not drawn) [DPX-2-0006, 2-(1H-benzo[d]imidazol-1-yl)ethyl 2-(6-methoxynaphthalen-2-yl)propanoate] | solubility at 1 day ([4]; demineralized water acidified with HCl, 37 °C, pH 2.9, aqueous buffer, thermodynamic from solid, pH 2.9, 37° C., no DMA): 180 µg/mL (≈ 481 µM)
19 | 1.03 | 16 ± 1 µM | 7 ± 1 µg/mL | 11 | 1e-06 | 0.065 | COc1ccc2cc(C(C)C(=O)OCCn3ccnc3-c3ccccc3)ccc2c1 (stereo not drawn) [DPX-2-0007, 2-(2-phenyl-1H-imidazol-1-yl)ethyl 2-(6-methoxynaphthalen-2-yl)propanoate] | solubility ([2]; 67 mM phosphate buffer (PBS), pH 7.4, aqueous buffer, thermodynamic from solid): 7 µg/mL (≈ 17.5 µM); precipitation after addition to buffer [5]: a precipitation was immediately observed; solubility at 3 days ([4]; demineralized water, 37 °C, pH 3.4, water, thermodynamic from solid, pH 3.4, hydrochloride salt in demineralized water, 3 days): 6800 µg/mL; fold increase in solubility at pH 3.4 compared to buffer pH 7.4 (PBS) ([4]; pH 3.4 vs pH 7.4): 1000 fold
20 | 12.6 | 15 ± 2 µg/mL | 0.044 ± 0.004 mM | 32 | 1e-06 | 0.022 | CC(C)Cc1ccc(C(C)C(=O)OCCc2ccccn2)cc1 (stereo not drawn) [DPX-3-0004, 2-(pyridin-2-yl)ethyl 2-(4-isobutylphenyl)propanoate] | –
21 | – | 4 ± 0.2 µg/mL | 0.012 ± 0.001 mM | 15 | 5.7e-07 | 0.048 | CC(C)Cc1ccc(C(C)C(=O)OCCn2cnc3ccccc32)cc1 (stereo not drawn) [DPX-3-0006, 2-(1H-benzo[d]imidazol-1-yl)ethyl 2-(4-isobutylphenyl)propanoate] | stability on incubation in plasma ([1]; 80% human plasma, 37° C., incubation for 10 h): remained intact; t1/2 in plasma [1, 6]: stable
22 | – | 1 µg/mL | 0.002 mM | – | – | – | CC(C)Cc1ccc(C(C)C(=O)OCCn2ccnc2-c2ccccc2)cc1 (stereo not drawn) [DPX-3-0007, 2-(2-phenyl-1H-imidazol-1-yl)ethyl 2-(4-isobutylphenyl)propanoate] | –

— patent US9809557B2 (priority 2011, dated 2017)
